# From publication PMC6199744, “Development of Chemical Proteomics for the Folateome and Analysis of the Kinetoplastid Folateome” (ACS Infectious Diseases, 2018)
# Read-outs that look alike come from different tables or passages of the source.
# What was measured:
# [1] = tested on: phenylalanine-4-hydroxylase (PAH); test: Multitargeted bead mixture competition; type: binding, L. major; details: for fold change vs vehicle control: protein LMJF.28.1280 PHENYLALANINE-4-HYDROXYLASE,PHENYLALANINE-4-HYDROXYLASE, PUTATIVE; for fold change: protein LMJF.28.1280 PHENYLALANINE-4-HYDROXYLASE, vehicle control = 1; for binding and competition to phenylalanine-4-hydroxylase (PAH): bead mixture, L. major lysate
# [2] = tested on: dynein associated protein (Tb09.211.4920); test: Multitargeted bead mixture competition; type: binding, T. brucei; details: for fold change / fold change - vehicle control: protein TB09.211.4920 DYNEIN-ASSOCIATED PROTEIN, PUTATIVE; for fold change: vehicle control = 1
# [3] = tested on: NGG1 INTERACTING FACTOR 3-LIKE (Tb427tmp.02.5000); type: binding; details: for fold change: vehicle control = 1
# [4] = tested on: haloacid dehalogenase-like hydrolase (LmjF.28.1370); test: Multitargeted bead mixture competition; type: binding, Leishmania; details: for fold change: protein LMJF.28.1370 HALOACID DEHALOGENASE-LIKE HYDROLASE, PUTATIVE, vehicle control = 1
# DHFR = target: T1, DHFR (Homo sapiens, UniProt P00374); test: Multitargeted bead mixture competition, HeLa cell extract; type: binding
# T1 sequence (P00374 1-187): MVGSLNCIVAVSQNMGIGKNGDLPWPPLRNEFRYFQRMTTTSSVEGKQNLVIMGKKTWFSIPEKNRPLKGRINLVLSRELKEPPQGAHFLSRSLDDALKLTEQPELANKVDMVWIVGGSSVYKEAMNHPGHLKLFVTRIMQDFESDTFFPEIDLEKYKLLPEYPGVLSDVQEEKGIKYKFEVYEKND
# [5] = target: T. brucei lysate proteins (Trypanosoma brucei brucei, UniProt P04789); type: binding
# [6] = target: T2, MTHF complex (DHCH protein in humans) (Homo sapiens, UniProt P11586); test: Multitargeted bead mixture competition, HeLa cell extract; type: binding
# T2 sequence (P11586 1-935): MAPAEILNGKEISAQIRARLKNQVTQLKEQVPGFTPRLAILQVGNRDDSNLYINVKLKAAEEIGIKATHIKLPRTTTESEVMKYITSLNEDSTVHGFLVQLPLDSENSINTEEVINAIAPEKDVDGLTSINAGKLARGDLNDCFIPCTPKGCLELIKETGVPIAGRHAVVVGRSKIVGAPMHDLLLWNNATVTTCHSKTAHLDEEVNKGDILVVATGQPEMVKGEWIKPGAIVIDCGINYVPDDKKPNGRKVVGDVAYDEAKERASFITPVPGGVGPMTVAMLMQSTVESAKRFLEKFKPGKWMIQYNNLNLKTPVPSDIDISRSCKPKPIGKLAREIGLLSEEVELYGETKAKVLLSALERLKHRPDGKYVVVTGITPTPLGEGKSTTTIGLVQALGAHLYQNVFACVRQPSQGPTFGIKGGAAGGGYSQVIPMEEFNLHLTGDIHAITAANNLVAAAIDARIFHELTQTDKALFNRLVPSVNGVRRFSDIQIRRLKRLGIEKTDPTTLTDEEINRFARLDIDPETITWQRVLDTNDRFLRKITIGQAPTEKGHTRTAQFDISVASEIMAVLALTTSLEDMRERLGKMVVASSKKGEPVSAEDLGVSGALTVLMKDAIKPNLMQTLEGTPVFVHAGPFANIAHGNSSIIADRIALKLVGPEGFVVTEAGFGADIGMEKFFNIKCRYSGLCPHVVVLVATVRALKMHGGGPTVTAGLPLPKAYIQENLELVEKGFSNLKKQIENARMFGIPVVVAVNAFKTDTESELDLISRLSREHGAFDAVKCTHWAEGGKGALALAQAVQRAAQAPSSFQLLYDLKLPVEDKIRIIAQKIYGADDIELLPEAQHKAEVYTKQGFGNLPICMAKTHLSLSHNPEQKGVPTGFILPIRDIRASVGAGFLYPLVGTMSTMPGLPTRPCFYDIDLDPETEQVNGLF
# [7] = target: variant surface glycoprotein 221 (VSM2.TRYBB) (Trypanosoma brucei brucei, UniProt P26332); type: binding, T. brucei; details: for fold change / fold change - vehicle control: protein VSM2_TRYBB VARIANT SURFACE GL[…] 1.2; for fold change: vehicle control = 1
# [8] = protein TB427TMP.02.5000 NGG1 INTERACTING FACTOR 3-LIKE
# [9] = HeLa, protein DHFR (SIMILAR TO DIHYDROFOLATE REDUCTASE ISOFORM 2, PARTIAL)
# [10] = protein TB427TMP.02.3210 TRIOS[…], vehicle control = 1
# [11] = HeLa, captured protein MTHFD1 (105 KDA PROTEIN.)
# [12] = protein TB427TMP.02.5000 NGG1 I[…] 3-LIKE
# [13] = protein TB427TMP.02.3210 TRIOS[…]
# [14] = bead mixture, T. brucei lysates
Structure (SMILES),fold change vs vehicle control [1],fold change [2],"fold change [3, 8]",fold change [4],fold changes relative to vehicle control (DHFR; [9]),"fold change vs vehicle control [5, 10]","fold changes relative to vehicle control [6, 11]",fold change [7],"fold change [3, 12]",fold change [1],fold change - vehicle control [2],"fold changes relative to vehicle control (DHFR; captured protein DHFR, HeLa)","fold change - vehicle control [5, 13]","fold changes relative to vehicle control ([6]; HeLa, protein MTHFD1)",fold change - vehicle control [7],other results
"Nc1nc2c(c(=O)[nH]1)N(C=O)C(CNc1ccc(C(=O)N[C@@H](CCC(=O)O)C(=O)O)cc1)CN2 (stereo partly shown) [LEU, leucovorin]",0.99,0.78,0.98,1.05,2.72,2.16,0.61,3.08,–,–,–,–,–,–,–,–
NCCCNc1ccc(C(=O)NC(CCC(=O)O)C(=O)O)cc1 (stereo not shown) [compound 7],1.02,0.68,–,1.02,0.98,1.05,1,0.81,1.16,–,–,–,–,–,–,–
CCCCCCOc1cccc(Cc2cnc(N)nc2N)c1 [compound 2],–,–,1.1,1,–,–,–,–,–,1.1,0.91,2.77,0.98,0.84,1.6,–
CCCCCCOc1ccc(Cc2cnc(N)nc2N)cc1 [compound 1],–,–,–,0.13,–,–,–,–,1.08,1.16,0.67,0.46,0.88,0.05,1.43,"interaction with haloacid dehalogenase-like hydrolase (LmjF.28.1370) ([4]; bead mixture, Leishmania lysates): interacted strongly; binding to DHFR (DHFR; bead mixture, HeLa cell extract): found to bind DHFR"
Nc1nc2cccc(-c3ccccc3)c2n1Cc1ccc(Cl)c(Cl)c1 [compound 3],–,–,–,1.07,–,–,–,–,1.02,0.81,0.96,1.13,0.75,1.01,0.67,"binding and competition to phenylalanine-4-hydroxylase (PAH) [1]: binding and competition; percentage of competition from bead binding ([3]; multitargeted bead mixture, free ligand 100 μM, T. brucei lysate, Tb427tmp.02.5000): -6%"
NCCOCCOCC(=O)Nc1nc2ncc(CNc3ccc(C(=O)NC(CCC(=O)O)C(=O)O)cc3)nc2c(=O)[nH]1 (stereo not shown) [compound 6],0.99,0.86,0.68,0.89,1.74,1.54,0.92,2.16,–,–,–,–,–,–,–,–
"Nc1nc2[nH]cc(CCc3ccc(C(=O)N[C@@H](CCC(=O)O)C(=O)O)cc3)c2c(=O)[nH]1 [PTX, pemetrexed]",0.28,0.9,–,0.93,–,–,–,0.39,1.01,–,–,–,–,–,–,"binding and competition to phenylalanine-4-hydroxylase (PAH) [1]: binding and competition; binding to dynein associated protein (Tb09.211.4920) [2, 14]: bound specifically; binding to DHFR (DHFR): did not appear to bind DHFR; fold changes relative to vehicle control (DHFR): 1.09; fold change vs vehicle control [5]: 0.63; fold changes relative to vehicle control [6]: 0.72; binding to variant surface glycoprotein 221 (VSM2.TRYBB) [7, 14]: bound specifically"
